Laboratory results taken from US12595504B2, “Methods for screening compounds for bactericidal activity and for determining the sensitivity of bacterial samples” (priority 2020, dated 2026).
Converted amounts (≈) assume the structure as drawn. Read-outs that look alike come from different tables or passages of the source.

Key:
thermostable luciferase = biological target: T1, thermostable luciferase (Nipponoluciola cruciata, UniProt P13129, A536K/G484A/G534A/I532L/M501V/N494T/N510T/P452A/P477D/R513K/R519V/S465N/S491H/S509T/T217I/T219I/V239I/V459I/V474L/V478D/V500I); format: biochemical
T1 construct: purchased Kikkoman CheckLite AT100
Method: FIG. 5. […] The luciferase-luciferin reagent was preincubated 40 min at 37° C. in presence of various antibiotics in LB before the addition of 30 nM ATP (in the absence of bacteria).
(§1) The classical luciferase was from Molecular Probes (ATP Determination Kit (A22066)). The thermostable luciferase was from “CheckLite AT100” (kikkoman). The Luciferin-luciferase reagents were prepared following manufacturer instructions. Bacteria from exponentially growing cultures (OD600=0.3) were added to each well (60 μl/well) of a black 96-microtiter plate (Greiner Bio-one, 655076) and 20 μl of the luciferin-luciferase reagent solution was added. The microtiter plate was incubated 5 min at 37° C. for reaction with the luciferase to eliminate traces of extracellular ATP. Then 40 μl of antibiotic solution (3 times concentrated) prepared in the culture medium were added. Bioluminescence of each well was monitored for 4 hours under shaking (218 rpm) and at 28 or 37° C., depending on the experiments (see legends of Figures). The reagent stability in presence or absence of antibiotics was checked in control experiments without bacteria but with 4 pmoles of ATP. […]
Bioluminescence was thus measured after preincubation of luciferase-lucifering reagent with the antibiotics at their maximal concentration used in this study in LB before the addition of 30 nM ATP (in the absence of bacteria).

[1] = tested on: E. coli MG1655 reporter cells; format: cell-based, Escherichia coli
Method: The classical luciferase was from Molecular Probes (ATP Determination Kit (A22066)). The thermostable luciferase was from “CheckLite AT100” (kikkoman). The Luciferin-luciferase reagents were prepared following manufacturer instructions. Bacteria from exponentially growing cultures (OD600=0.3) were added to each well (60 μl/well) of a black 96-microtiter plate (Greiner Bio-one, 655076) and 20 μl of the luciferin-luciferase reagent solution was added. The microtiter plate was incubated 5 min at 37° C. for reaction with the luciferase to eliminate traces of extracellular ATP. Then 40 μl of antibiotic solution (3 times concentrated) prepared in the culture medium were added. Bioluminescence of each well was monitored for 4 hours under shaking (218 rpm) and at 28 or 37° C., depending on the experiments (see legends of Figures). The reagent stability in presence or absence of antibiotics was checked in control experiments without bacteria but with 4 pmoles of ATP. Tests were also performed in 384-microtiter plates (Greiner Bio-one, 784076).
Aminoglycosides are bactericidal antibiotics causing translational miscoding with lethal consequences for the cell. Leakage of small molecules following an aminoglycoside shock was previously identified by different methods including radiolabelling. Therefore, the inventors investigated the response of live cells to aminoglycoside stress.

Escherichia coli MG1655 = assay: Antibiotic MIC determination (serial twofold dilutions, OD600 during 17 hours at 37° C.); format: cell-based; conditions: for MIC: Escherichia coli
Method: The Minimal Inhibitory Concentration (MIC) of the antibiotics was determined under the same culture conditions as the tests using the ATP assay kit. […] An exponentially growing culture (OD600=0.3) was added to each well (60 μl/well) of a sterile microtiter plate containing the test concentration of antibiotic (40 μl/well). The volume was completed to 120 μl with medium and OD600 nm measurements were performed using a microtiter plate reader (Infinite 200 PRO, TECAN) during 17 hours at 37° C.
In all the following experiments, the MIC values were measured for each antibiotic with parameters such as temperature, OD600 and equipment identical to those used for the bioluminescence assay.

E. coli = assay: Survival assay (kill curves, CFU) with neomycin; format: cell-based, Escherichia coli; conditions: different neomycin concentrations, LB
[2] = tested on: biofilm of the multidrug-resistant Staphylococcus aureus USA300 strain; assay: Drug dependent ATP release from biofilm; format: cell-based; conditions: washed biofilm, 37° C., FIG. 20b
Method: FIG. 20. Drug dependent ATP release from biofilm of the multidrug-resistant Staphylococcus aureus USA300 strain. A, Control experiment at 37° C. in absence of antibiotic. Biofilms were washed with MOPS medium prior to be exposed to neomycin in the bioluminescent assay. Biofilms were obtained as described in the Examples section and washed twice with MOPS-G medium. Wash solutions were tested for the presence of ATP with the bioluminescence assay. […] Washed biofilms were then tested for ATP release. Signals were present in the first 40 min. This ATP release probably originates from shaking of the biofilm in the plate reader with physical perturbation of the biofilm. B, Biofilm response at 37° C. to drug exposure.
Biofilms were produced by following standard protocols. Briefly, S. aureus USA300 was incubated overnight in tryptic-soy broth (with 0.25% glucose) at 37° C. with 180 rpm agitation. Wells of a FLUOTRAC™ microplate (sterilized beforehand) were then filled with 150 μl of the inoculated broth previously diluted to obtain average concentrations between 10^5-10^6 CFU/ml. The microplate was covered and incubated at 37° C. for 18 hours. Biofilms were then washed twice with 150 μl of MOPS. 80 μl of the wash solution was not discarded and placed in an adjacent well to observe the quantity of ATP it contained. […]

S. aureus USA300 = assay: CFU kill assay of stationary phase cells with or without centrifugation; format: cell-based, Staphylococcus aureus
Method: FIG. 4. A. Centrifugation with change for fresh medium prior to aminoglycoside exposure stimulates drug bactericidal effect. S. aureus USA300 in TSB medium with 0.25% glucose was incubated until stationary phase has been reached at 37° C. Cells were either centrifuged at 12 000 rpm for 5 minutes (+) or placed at 37° C. without centrifugation (≠). After centrifugation, pellets were washed with fresh broth and placed at 37° C. Depending on the test, different concentrations of neomycin were added. S. aureus USA300 samples that were centrifuged and washed with fresh broth are more sensitive to neomycin. For instance, bacterial CFU go below the detection threshold (10^2 CFU/ml) at 2 hours for 8 mM and 2 mM concentrations while it takes 2 more hours for the 0.5 mM concentration. Bars represent the standard error from the mean (SEM) calculated on GraphPad Prism version 8.4.1. B. S. aureus USA300 in TSB medium with 0.25% glucose was incubated until stationary phase has been reached at 37° C. Cells were either centrifuged at 12 000 rpm for 5 minutes or placed at 37° C. without centrifugation. After centrifugation, pellets were washed with fresh broth and placed at 37° C. A volume of 100 μL of fresh media with 4 mM of neomycin was added to all the tubes (final concentration at 2 mM), centrifuged or not, 5, 15, 30, 60 and 120 minutes post-centrifugation. Samples were incubated for a total of 2 hours with the neomycin before being washed three times with PBS 1×, diluted and incubated on tryptic soy agar. The next day, colony forming units/mL were counted. Bars represent the standard deviation (SD) calculated on GraphPad Prism version 8.4.3.

E. coli MG1655 KanR = assay: ATP leakage assay on aminoglycoside resistant strain (KanR, APH(3′)-IIa); format: cell-based, Escherichia coli; conditions: MOPS minimal medium (glucose 0.4%), increasing concentrations, 37° C.
Method: FIG. 7. Absence of ATP leakage with an aminoglycoside resistant strain E. coli MG1655. The resistant strain (MG KanR) contains the gene for expression of the aminoglycoside O-phosphotransferase APH(3′)-IIa. ATP release of resistant (KanR) or non-resistant (WT) MG 1655 E. coli cells exposed in MOPS minimal medium (glucose 0.4%) to increasing concentrations of neomycin at 37° C. ATP leakage was absent for the resistant strain (KanR).
as §1

[3] = Comparative stability assay of classical and thermostable luciferase at 37° C.; format: physicochemical
Method: For performing this assay, a classical luciferase (firefly luciferase; Molecular Probes ATP determination kit A22066) and the thermostable luciferase (Checklite kit, Kikkoman, AAE43251.1) were used according to the manufacturer's instructions. Both types of luciferases were added to rich LB or minimal MOPS-Glucose media pre-heated at 37° C. At various times during incubation, aliquots of the solutions were collected, supplemented with reagents and mixed with 0.8 pmole of ATP for bioluminescence readings. Immediately after mixing, bioluminescence measurements were performed at 37° C. using an InfinitePro200, TECAN plate reader in a total volume of 12 μL on a 384-wells microtiter plate (Greiner Bio-one, 784076).

[4] = MG1655, read-out: MIC in MOPS glucose 0.4%, MOPS minimal medium glucose 0.4%, 37° C.
[5] = MG1655, LB medium, OD600 0.15 final, 37° C., read-out: MIC in LB
[6] = LB medium, OD600 0.15 final, 37° C.

T1 sequence (P13129 other isoform, or with tags, fused parts or gaps with the stated changes): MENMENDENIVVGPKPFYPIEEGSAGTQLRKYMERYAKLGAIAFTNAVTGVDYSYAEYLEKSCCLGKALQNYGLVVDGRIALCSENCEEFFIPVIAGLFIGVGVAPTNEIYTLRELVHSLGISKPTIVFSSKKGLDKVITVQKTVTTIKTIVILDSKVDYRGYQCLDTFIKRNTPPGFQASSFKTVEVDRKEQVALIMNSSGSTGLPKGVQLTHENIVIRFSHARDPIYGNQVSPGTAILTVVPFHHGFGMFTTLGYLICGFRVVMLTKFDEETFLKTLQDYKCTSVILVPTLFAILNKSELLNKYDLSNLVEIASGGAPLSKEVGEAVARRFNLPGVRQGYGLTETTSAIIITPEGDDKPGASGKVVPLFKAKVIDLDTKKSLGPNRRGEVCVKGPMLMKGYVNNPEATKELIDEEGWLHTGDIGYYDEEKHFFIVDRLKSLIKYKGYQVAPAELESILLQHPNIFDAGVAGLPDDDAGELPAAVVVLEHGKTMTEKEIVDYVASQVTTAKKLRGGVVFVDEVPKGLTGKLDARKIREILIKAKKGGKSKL

Molecule: COc1ccc(C[C@H](N)C(=O)N[C@H]2[C@@H](O)[C@H](n3cnc4c(N(C)C)ncnc43)O[C@@H]2CO)cc1 [Puromycin]
- Effect on the activity of the bioluminescence assay (thermostable luciferase; preincubation with antibiotic in LB, 30 nM ATP, no bacteria, inhibition only at concentration above the MIC): significant inhibition of bioluminescence
- ATP leakage ([1]; sub-MIC concentrations, LB, FIG. 9): very weak leakage
- MIC (Escherichia coli MG1655; [4]): 871 µg/mL (≈ 1850 µM)
- MIC (Escherichia coli MG1655; [5]): 435 µg/mL (≈ 923 µM)
- MIC in LB (Escherichia coli MG1655; [6]): 377 µg/mL (≈ 800 µM)

Molecule: COc1cc(Cc2cnc(N)nc2N)cc(OC)c1OC [Trimethoprim]
- Concentration above which the drug inhibits the luciferase reaction (thermostable luciferase): above 200 μg/mL
- MIC (Escherichia coli MG1655; [4]): 6.25 µg/mL (≈ 21.5 µM)
- MIC (Escherichia coli MG1655; [5]): 50 µg/mL (≈ 172 µM)

Molecule: Neomycin
- Number of colonies forming units (CFU) during the first 90 minutes (E. coli): remained constant
- Shape of ATP release trace ([1]; LB medium, 37° C., FIG. 8): bi-phasic
- Shape of ATP release trace ([1]; MOPS minimal medium (glucose 0.4%), FIG. 11): monophasic
- Lag time before ATP ([1]; antibiotic at 5.6 μg/mL, LB, 37° C.): 48.6 min
- Lag time before ATP ([1]; antibiotic at 11.25 μg/mL, LB, 37° C.): 42.4 min
- Lag time before ATP ([1]; antibiotic at 22.8 μg/mL, LB, 37° C.): 16.3 min
- Lag time before ATP ([1]; antibiotic at 45.0 μg/mL, LB, 37° C.): 12.8 min
- Lag time before ATP ([1]; antibiotic at 91.0 μg/mL, LB, 37° C.): 9.4 min
- Lag before ATP release (shortest, incompressible value) ([1]; highest concentrations tested, LB, 37° C.): about 9.4 min
- ATP release from biofilm [2]: triggered ATP release
- Time at which bacterial CFU go below the detection threshold (10^2 CFU/ml) (S. aureus USA300; 0.5 mM, samples centrifuged and washed, compared with 8 mM and 2 mM): 2 more hours
- Time at which bacterial CFU go below the detection threshold (10^2 CFU/ml) (S. aureus USA300; 2 mM, samples centrifuged and washed with fresh broth): 2 hours
- Time at which bacterial CFU go below the detection threshold (10^2 CFU/ml) (S. aureus USA300; 8 mM, samples centrifuged and washed with fresh broth): 2 hours
- ATP leakage (E. coli MG1655 KanR): absent
- MIC in LB (Escherichia coli MG1655; [6]): 22.8 µg/mL
- MIC in MOPS glucose 0.4% (Escherichia coli MG1655; MOPS minimal medium glucose 0.4%, 37° C.): 0.8 µg/mL
- Experimental MIC (Escherichia coli MG1655; Mueller Hinton media, EUCAST inoculum): 3.12 µg/mL

Molecule: classical firefly luciferase: firefly luciferase; Molecular Probes ATP determination kit A22066, not thermostable
- Loss of activity ([3]; LB medium, after 12 minutes of incubation): 70%
- Loss of activity ([3]; minimal MOPS-G medium, in 30 minutes): more than 80%
